Literature values as cited in patent US20250312497A1, “METHOD OF TREATING PROSTATE CANCER” (Novartis AG, priority 2022, published 2025).
Read-outs that look alike come from different tables or passages of the source.

Tested on: castrate-resistant metastatic prostate cancer
Details: cited from earlier work

O=C([O-])CN1CCN(CC(=O)[O-])CCN(CC(=O)NCC2CCC(C(=O)N[C@@H](Cc3ccc4ccccc4c3)C(=O)NCCCC[C@H](NC(=O)N[C@@H](CCC(=O)O)C(=O)O)C(=O)O)CC2)CCN(CC(=O)[O-])CC1.[177Lu+3] (some centres unmarked) [[177Lu]Lu-PSMA-617, lutetium (177Lu) vipivotide tetraxetan]
participants with PSA decline >50% (10 participants, 5.6 GBq/150 mCi): 50% | participants with PSA decline >50% (after 2 cycles of 6 GBq/160 mCi): 60%
